Results as given in patent US7834045B2, “N-substituted pyrazolyl carboxanilides” (Bayer CropScience AG, priority 2003, dated 2010).
Blank lines part the entries; values can stand above or below the compound they belong to.

Tests used:
[1] = tested on: Puccinia recondita; assay: Puccinia test (wheat)/protective; type: in vivo; details: protective, application rate 500 g/ha, evaluation 10 days after inoculation
Experimental: • Solvent: 25 parts by weight of N,N-dimethylacetamide • Emulsifier: 0.6 part by weight of alkylaryl polyglycol ether To produce a suitable preparation of active compound, 1 part by weight of active compound is mixed with the stated amounts of solvent and emulsifier, and the concentrate is diluted with water to the desired concentration. To test for protective activity, young plants are sprayed with the preparation of active compound at the stated application rate. After the spray coating has dried on, the plants are sprayed with a conidia suspension of Puccinia recondita. The plants remain in an incubation cabinet at 20° C. and 100% relative atmospheric humidity for 48 hours. The plants are then placed in a greenhouse at a temperature of about 20° C. and a relative atmospheric humidity of 80% to promote the development of rust pustules. Evaluation is carried out 10 days after the inoculation. 0% means an efficacy which corresponds to that of the control, whereas an efficacy of 100% means that no infection is observed.

[2] = tested on: Sphaerotheca fuliginea; assay: Sphaerotheca test (cucumber)/protective; type: in vivo; details: protective, application rate 750 g/ha, evaluation 7 days after inoculation
Experimental: • Solvent: 49 parts by weight of N,N-dimethylformamide • Emulsifier: 1 part by weight of alkylaryl polyglycol ether To produce a suitable preparation of active compound, 1 part by weight of active compound is mixed with the stated amounts of solvent and emulsifier, and the concentrate is diluted with water to the desired concentration. To test for protective activity, young cucumber plants are sprayed with the preparation of active compound at the stated application rate. 1 day after the treatment, the plants are inoculated with a spore suspension of Sphaerotheca fuliginea. The plants are then placed in a greenhouse at 70% relative atmospheric humidity and a temperature of 23° C. Evaluation is carried out 7 days after the inoculation. 0% means an efficacy which corresponds to that of the control, whereas an efficacy of 100% means that no infection is observed.

[3] = log P determination by HPLC on reversed-phase column (EEC Directive 79/831 Annexe V.A8); type: physicochemical; details: reversed-phase HPLC column (C 18), pH 2.3, C 18, 43° C., preparation examples
Experimental: The log P values given in the preparation examples and tables above are determined in accordance with EEC Directive 79/831 Annexe V.A8 by HPLC (High Performance Liquid Chromatography) on a reversed-phase column (C 18). Temperature: 43° C.
The determination in the acidic range is carried out at pH 2.3 using the mobile phases 0.1% aqueous phosphoric acid and acetonitrile; linear gradient from 10% acetonitrile to 90% acetonitrile.
Calibration was carried out using unbranched alkan-2-ones (with 3 to 16 carbon atoms) with known log P values (determination of the log P values by the retention times using linear interpolation between two successive alkanones).

[4] = tested on: Podosphaera leucotricha; assay: Podosphaera test (apple)/protective; type: in vivo; details: protective, application rate 100 g/ha, evaluation 10 days after inoculation
Experimental: (§1) • Solvents: 24.5 parts by weight of acetone • 24.5 parts by weight of dimethylacetamide • Emulsifier: 1 part by weight of alkylaryl polyglycol ether
(§2) To produce a suitable preparation of active compound, 1 part by weight of active compound is mixed with the stated amounts of solvents and emulsifier, and the concentrate is diluted with water to the desired concentration.
To test for protective activity, young plants are sprayed with the preparation of active compound at the stated application rate. After the spray coating has dried on, the plants are inoculated with an aqueous spore suspension of the apple mildew pathogen Podosphaera leucotricha. The plants are then placed in a greenhouse at about 23° C. and a relative atmospheric humidity of about 70%.
(§3) Evaluation is carried out 10 days after the inoculation. 0% means an efficacy which corresponds to that of the control, whereas an efficacy of 100% means that no infection is observed.

[5] = tested on: Venturia inaequalis; assay: Venturia test (apple)/protective; type: in vivo; details: protective, application rate 100 g/ha, evaluation 10 days after inoculation
Experimental: as §1, §2
To test for protective activity, young plants are sprayed with the preparation of active compound at the stated application rate. After the spray coating has dried on, the plants are inoculated with an aqueous conidia suspension of the apple scab pathogen Venturia inaequalis and then remain in an incubation cabinet at about 20° C. and 100% relative atmospheric humidity for one day.
The plants are then placed in a greenhouse at about 21° C. and a relative atmospheric humidity of about 90%.
as §3

[6] = tested on: Botrytis cinerea; assay: Botrytis test (bean)/protective; type: in vivo; details: protective, application rate 500 g/ha, evaluation 2 days after inoculation
Experimental: as §1
To produce a suitable preparation of active compound, 1 part by weight of active compound is mixed with the stated amounts of solvent and emulsifier, and the concentrate is diluted with water to the desired concentration.
To test for protective activity, young plants are sprayed with the preparation of active compound at the stated application rate. After the spray coating has dried on, 2 small pieces of agar colonized by Botrytis cinerea are placed onto each leaf. The inoculated plants are placed in a dark chamber at about 20° C. and 100% relative atmospheric humidity.
2 days after the inoculation, the size of the infected areas on the leaves is evaluated. 0% means an efficacy which corresponds to that of the control, whereas an efficacy of 100% means that no infection is observed.

Structure (SMILES): Cc1nn(C)c(F)c1C(=O)N(C)c1ccccc1C(C)CC(C)(C)C (centres unmarked)
Efficacy in % [1]: 100%

Structure (SMILES): Cc1nn(C)c(F)c1C(=O)N(C)c1ccccc1C(C)CC(C)C (centres unmarked)
Efficacy in % [1]: 100%

Structure (SMILES): CC(CC(C)(C)C)c1ccccc1N(C)C(=O)c1c(C(F)(F)F)nn(C)c1F (centres unmarked)
Efficacy in % [2]: 100%

chromatographic logP [3]: 4.63
Structure (SMILES): CC(=O)N(C(=O)c1c(C(F)(F)F)nn(C)c1F)c1ccccc1C(C)CC(C)(C)C (centres unmarked) [Example 1, N-acetyl-5-fluoro-1-methyl-3-(trifluoromethyl)-N-[2-(1,3,3-trimethylbutyl)phenyl]-1H-pyrazole-4-carboxamide]

chromatographic logP [3]: 4.4
Structure (SMILES): CCOC(=O)C(=O)N(C(=O)c1c(C)nn(C)c1F)c1ccccc1C(C)CC(C)(C)C (centres unmarked) [Example 2, ethyl {[(5-fluoro-1,3-dimethyl-1H-pyrazol-4-yl)carbonyl][2-(1,3,3-trimethylbutyl)phenyl]amino}(oxo)acetate]

chromatographic logP [3]: 2.65
Structure (SMILES): CC(=O)Nc1ccccc1C(C)CC(C)C (centres unmarked) [III-1, N-[2-(1,3-dimethylbutyl)phenyl]acetamide]

Structure (SMILES): COCN(C(=O)c1c(C(F)(F)F)nn(C)c1F)c1ccccc1C(C)CC(C)(C)C (centres unmarked) [drawing 19]
Efficacy in % [4]: 98%

Structure (SMILES): CCOC(=O)C(=O)N(C(=O)c1c(C)nn(C)c1F)c1ccccc1C(C)CC(C)(C)C (centres unmarked) [drawing 20]
Efficacy in % [4]: 97%

Structure (SMILES): COCN(C(=O)c1c(C(F)(F)F)nn(C)c1F)c1ccccc1C(C)CC(C)(C)C (centres unmarked) [drawing 21]
Efficacy in % [5]: 100%

Structure (SMILES): CCOC(=O)C(=O)N(C(=O)c1c(C)nn(C)c1F)c1ccccc1C(C)CC(C)(C)C (centres unmarked) [drawing 22]
Efficacy in % [5]: 100%

Structure (SMILES): COCN(C(=O)c1c(C(F)(F)F)nn(C)c1F)c1ccccc1C(C)CC(C)(C)C (centres unmarked) [drawing 23]
Efficacy in % [6]: 100%

Structure (SMILES): CCOC(=O)C(=O)N(C(=O)c1c(C)nn(C)c1F)c1ccccc1C(C)CC(C)(C)C (centres unmarked) [drawing 24]
Efficacy in % [6]: 97%

Structure (SMILES): COCN(C(=O)c1c(C(F)(F)F)nn(C)c1F)c1ccccc1C(C)CC(C)(C)C (centres unmarked) [drawing 25]
Efficacy in % [1]: 100%

Structure (SMILES): COCN(C(=O)c1c(C(F)(F)F)nn(C)c1F)c1ccccc1C(C)CC(C)(C)C (centres unmarked) [drawing 29]
Efficacy in % [2]: 100%
